Values after ≈ are worked out from the molar mass of the structure shown. Values joined by “and” are separate entries in the source; they are usually repeats but may differ in a detail not shown here. Equal values may be shown once. “Also recorded” adds a separate entry of the source. Where a name gives a salt, the structure may show the parent alone. Read-outs that look alike come from different tables or passages of the source. Each block holds one compound with its values, some of them ahead of it.
Key:
[1] = peak serum levels in dogs; assay type: in vivo; details: dog, 10 mg/kg I.M.
Description: (§1) In determining peak serum levels, the animal tested (e.g. dog or rat) is given a single dose of 10 or 25 mg/kg of everninomicin D or derivative thereof of this invention, blood samples are taken periodically, and the serum thereof is assayed for anti-bacterial activity by an agar-diffusion-assay as described by Weinstein et al., Antimicrobial Agents and Chemotherapy, p 24 (1964).

[2] = system: Staphylococcus and Streptococcus; assay: in vitro susceptibility of gram-positive microorganisms, standard tube dilution (MIC); assay type: cell-based; details: for MIC: Staphylococcus and Streptococcus, 24 hours at 37° C, Penassay broth; for antibacterial activity compared with everninomicin D: gram-positive bacteria
Description: The comparative in vitro activities of nitrosoeverninomicin D and the sodium salt thereof, hydroxylaminoeverninomicin D and the sodium salt and N-methylglucamine salt thereof, hydroxylaminoeverninomicin D benzyl nitrone N-methylglucamine salt, hydroxylaminoeverninomicin B and hydroxylaminoeverninomicin C are set forth in Table 1 below. The susceptibility of the test gram-positive microorganisms to the antibacterials was determined by standard tube dilution methods. In each instance 10^^-5 dilutions of 24-hour broth cultures were employed as inoculum with the endpoints being taken after incubation for 24 hours at 37° C in a Difco […] broth medium (Difco Labs., Detroit, Michigan). In the tables, the activity (or assay value) of each respective antibacterial agent is expressed in units per milliliter or micrograms per milliliter.

[3] = peak serum levels in rats; assay type: in vivo; details: rat, 25 mg/kg S.C.
Description: as §1

[4] = system: S. aureus (A.T.C.C. 6538p); assay: microbiological assay (bioassay), cup-type agar diffusion; assay type: cell-based
Description: The microbiological assay (also called the bioassay) is effected microbiologically by a standard cup-type agar diffusion assay technique using S. aureus (A.T.C.C. 6538p) as test organism. A reference curve is prepared by plotting the dosage-response of the antibacterial agent in ethanol diluted by phosphate buffer at pH7 upon a medium of the following composition which has been inoculated with the test organism (i.e. S. aureus): A suspension of the assay organism (S. aureus A.T.C.C. 6538p) is standardized to produce 20% transmission at 660 mμ in a colorimeter. The potency of the sample is determined from the reference curve and expressed in terms of units per milligram (a unit being that amount of test substance required to produce a 15 mm zone of inhibition with a steel cylinder of 6.5 mm outside diameter).

[5] = pKa of purified everninomicin D; assay type: physicochemical
[6] = acute toxicity (LD50) in mice; details: mouse, in vivo; for LD50 in mice I.P. (mg/kg): ip; for LD50 in mice I.V. (mg/kg): iv; for LD50 in mice S.C. (mg/kg): sc
Description: The acute toxicity (LD50) of the antibacterial substances in either aqueous suspensions or aqueous solutions is measured in milligrams per kilogram in standard manner using male CF-1 mice weighing 20 grams.

[7] = system: N.gonorrhea and N.meningitidis; assay: in vitro susceptibility of gram-negative microorganisms, plate dilution in Thayer-Martin medium (MIC); assay type: cell-based, Neisseria gonorrhea and Neisseria meningitidis; details: for MIC: N.gonorrhea and N.meningitidis, Thayer-Martin medium
Description: The susceptibility of the gram-negative microorganisms to the antibacterials was determined by plate dilution methods in Thayer-Martin medium by the known Thayer-Martin procedure.

[8] = absorption, serum levels and excretion after injection compared with everninomicin D; assay type: in vivo; details: by injection
Description: as §1

Cmax ([1]; serum, im): 15000 ng/mL
MIC ([2]; 24 h, read-out: MIC): 0.1 to 0.8 µg/mL (≈ 0.0682 to 0.546 µM)
SMILES: COCC1OC(OC2OCC3OC4(OCC(O)C5OCOC54)OC3C2OC)C(OC)C(O)C1OC1OC(C)C(OC)C(OC2CC3(C)OC4(CC(O)C(OC5CC(OC6CC(C)(NO)C(OC)C(C)O6)C(OC(=O)c6c(C)c(Cl)c(O)c(Cl)c6OC)C(C)O5)C(C)O4)OC3C(C)O2)C1O (stereo not drawn) [Hydroxylaminoeverninomicin C, hydroxylaminoeverninomicin C]

Peak serum levels in rats [3]: 10 to 11 µg/mL
Peak serum levels in dogs [1]: 6 µg/mL
MIC ([2]; 24 h, read-out: MIC): 0.08 to 0.8 µg/mL (≈ 0.0526 to 0.526 µM)
SMILES: COCC1OC(OC2OCC3OC4(OCC(O)(C(C)OC)C5OCOC54)OC3C2OC)C(OC)C(O)C1OC1OC(C)C(OC)C(OC2CC3(C)OC4(CC(O)C(OC5CC(OC6CC(C)(N=O)C(OC)C(C)O6)C(OC(=O)c6c(C)c(Cl)c(O)c(Cl)c6OC)C(C)O5)C(C)O4)OC3C(C)O2)C1O (stereo not drawn) [Nitrosoeverninomicin D, nitrosoeverninomicin D]
Bioassay [4]: 1460 µg/mL

MIC ([2]; 24 h, read-out: MIC): 0.1 to 1 µg/mL (≈ 0.065 to 0.65 µM)
SMILES: COCC1OC(OC2OCC3OC4(OCC(O)(C(C)OC)C5OCOC54)OC3C2OC)C(OC)C(O)C1OC1OC(C)C(OC)C(OC2OC(C)C3OC4(CC(O)C(OC5CC(OC6CC(C)(NO)C(OC)C(C)O6)C(OC(=O)c6c(C)c(Cl)c(O)c(Cl)c6OC)C(C)O5)C(C)O4)OC3(C)C2O)C1O (stereo not drawn) [Hydroxylaminoeverninomicin B, hydroxylaminoeverninomicin B]

SMILES: COCC1OC(OC2OCC3OC4(OCC(O)(C(C)OC)C5OCOC54)OC3C2OC)C(OC)C(O)C1OC1OC(C)C(OC)C(OC2CC3(C)OC4(CC(O)C(OC5CC(OC6CC(C)([N+](=O)[O-])C(OC)C(C)O6)C(OC(=O)c6c(C)c(Cl)c(O)c(Cl)c6OC)C(C)O5)C(C)O4)OC3C(C)O2)C1O (stereo not drawn) [Everninomicin D, everninomicin D, reference compound]
pKa [5]: 7.2
Peak serum levels in rats [3]: 10 to 12 µg/mL
Peak serum levels in dogs [1]: 2 to 3 µg/mL
MIC ([2]; 24 h, read-out: MIC): 0.03 to 0.3 µg/mL (≈ 0.0195 to 0.195 µM)
LD50 in mice I.P. (mg/kg) [6]: > 3800
LD50 in mice I.V. (mg/kg) [6]: 125
LD50 in mice Oral (mg/kg) [6]: > 3800
LD50 in mice S.C. (mg/kg) [6]: > 3800

SMILES: COCC1OC(OC2OCC3OC4(OCC(O)(C(C)OC)C5OCOC54)OC3C2OC)C(OC)C(O)C1OC1OC(C)C(OC)C(OC2CC3(C)OC4(CC(O)C(OC5CC(OC6CC(C)([N+]([O-])=Cc7ccccc7)C(OC)C(C)O6)C(OC(=O)c6c(C)c(Cl)c(O)c(Cl)c6OC)C(C)O5)C(C)O4)OC3C(C)O2)C1O (stereo not drawn) [hydroxylaminoeverninomicin D benzyl nitrone]
Bioassay [4]: 1309.0 µg/mL

SMILES: COCC1OC(OC2OCC3OC4(OCC(O)(C(C)OC)C5OCOC54)OC3C2OC)C(OC)C(O)C1OC1OC(C)C(OC)C(OC2CC3(C)OC4(CC(O)C(OC5CC(OC6CC(C)(NO)C(OC)C(C)O6)C(OC(=O)c6c(C)c(Cl)c(O)c(Cl)c6OC)C(C)O5)C(C)O4)OC3C(C)O2)C1O (stereo not drawn) [Hydroxylaminoeverninomicin D sodium salt, hydroxylaminoeverninomicin D sodium salt]
MIC ([7]; Neisseria meningitidis, read-out: MIC): 0.2 to 1 µg/mL
Peak serum levels in rats [3]: 30 to 40 µg/mL
Peak serum levels in dogs [1]: 20 to 30 µg/mL
MIC ([2]; sodium salt): 0.08 to 0.8 µg/mL
antibacterial activity compared with everninomicin D ([2]; sodium salt): antibacterial activity comparable to that of the everninomicin D precursor; also recorded: comparable antibacterial activity against gram-positive bacteria
absorption compared with everninomicin D [8]: more rapidly absorbed
excretion compared with everninomicin D [8]: more rapidly excreted than everninomicin D
serum levels compared with everninomicin D [8]: higher serum levels
LD50 in mice I.P. (mg/kg) [6]: 500
LD50 in mice I.V. (mg/kg) [6]: 30
LD50 in mice Oral (mg/kg) [6]: > 2000
LD50 in mice S.C. (mg/kg) [6]: 500

Peak serum levels in rats ([3]; 25 mg/kg): 10 to 12 µg/mL and 9 µg/mL
Peak serum levels in dogs [1]: 1 to 2 µg/mL
SMILES: COCC1OC(OC2OCC3OC4(OCC(O)(C(C)OC)C5OCOC54)OC3C2OC)C(OC)C(O)C1OC1OC(C)C(OC)C(OC2CC3(C)OC4(CC(O)C(OC5CC(OC6CC(C)([N+]([O-])=Cc7ccccc7)C(OC)C(C)O6)C(OC(=O)c6c(C)c(Cl)c(O)c(Cl)c6OC)C(C)O5)C(C)O4)OC3C(C)O2)C1O (stereo not drawn) [hydroxylaminoeverninomicin D benzyl nitrone N-methylglucamine salt]

SMILES: CCCCCCC=[N+]([O-])C1(C)CC(OC2CC(OC3C(O)CC4(OC3C)OC3C(C)OC(OC5C(O)C(OC6C(COC)OC(OC7OCC8OC9(OCC(O)(C(C)OC)C%10OCOC%109)OC8C7OC)C(OC)C6O)OC(C)C5OC)CC3(C)O4)OC(C)C2OC(=O)c2c(C)c(Cl)c(O)c(Cl)c2OC)OC(C)C1OC (stereo not drawn) [hydroxylaminoeverninomicin D heptyl nitrone]
Bioassay [4]: 892 µg/mL

SMILES: COCC1OC(OC2OCC3OC4(OCC(O)(C(C)OC)C5OCOC54)OC3C2OC)C(OC)C(O)C1OC1OC(C)C(OC)C(OC2CC3(C)OC4(CC(O)C(OC5CC(OC6CC(C)(NO)C(OC)C(C)O6)C(OC(=O)c6c(C)c(Cl)c(O)c(Cl)c6OC)C(C)O5)C(C)O4)OC3C(C)O2)C1O (stereo not drawn) [Hydroxylaminoeverninomicin D, hydroxylaminoeverninomicin D]
activity against certain gram-negative bacteria ([7]; certain gram-negative bacteria, in words): certain gram-negative bacteria are also susceptible
MIC [2]: 0.3 to 0.8 µg/mL
antibacterial activity compared with everninomicin D [2]: antibacterial activity comparable to that of everninomicin D; also recorded: comparable antibacterial activity against gram-positive bacteria
absorption compared with everninomicin D [8]: more rapidly absorbed

SMILES: COCC1OC(OC2OCC3OC4(OCC(O)(C(C)OC)C5OCOC54)OC3C2OC)C(OC)C(O)C1OC1OC(C)C(OC)C(OC2CC3(C)OC4(CC(O)C(OC5CC(OC6CC(C)(NO)C(OC)C(C)O6)C(OC(=O)c6c(C)c(Cl)c(O)c(Cl)c6OC)C(C)O5)C(C)O4)OC3C(C)O2)C1O (stereo not drawn) [Hydroxylaminoeverninomicin D N-methylglucamine salt]
MIC [7]: 0.2 to 1.0 µg/mL
Peak serum levels in rats [3]: 30 to 40 µg/mL
Peak serum levels in dogs [1]: 20 to 30 µg/mL
MIC [2]: 0.08 to 0.8 µg/mL
LD50 in mice I.P. (mg/kg) [6]: 500
LD50 in mice I.V. (mg/kg) [6]: 30
LD50 in mice Oral (mg/kg) [6]: > 2000
LD50 in mice S.C. (mg/kg) [6]: 500

SMILES: COCC1OC(OC2OCC3OC4(OCC(O)(C(C)OC)C5OCOC54)OC3C2OC)C(OC)C(O)C1OC1OC(C)C(OC)C(OC2CC3(C)OC4(CC(O)C(OC5CC(OC6CC(C)([N+]([O-])=Cc7ccco7)C(OC)C(C)O6)C(OC(=O)c6c(C)c(Cl)c(O)c(Cl)c6OC)C(C)O5)C(C)O4)OC3C(C)O2)C1O (stereo not drawn) [hydroxylaminoeverninomicin D furfuryl nitrone]
Bioassay [4]: 1063.4 µg/mL

MIC ([2]; sodium salt): 0.08 to 3 µg/mL
SMILES: COCC1OC(OC2OCC3OC4(OCC(O)(C(C)OC)C5OCOC54)OC3C2OC)C(OC)C(O)C1OC1OC(C)C(OC)C(OC2CC3(C)OC4(CC(O)C(OC5CC(OC6CC(C)(N=O)C(OC)C(C)O6)C(OC(=O)c6c(C)c(Cl)c(O)c(Cl)c6OC)C(C)O5)C(C)O4)OC3C(C)O2)C1O (stereo not drawn) [Nitrosoeverninomicin D sodium salt, nitrosoeverninomicin D sodium salt]

Source: patent publication US4006225A, “Method of using reduction products of everninomicins as antibacterial agents and pharmaceutical compositions useful therefor” (Schering Corporation, priority 1975, dated 1977)
